This is an account of results in patent publication US20090191173A1, “Induction Of Neurogenesis And Stem Cell Therapy In Combination With Copolymer 1” (priority 2004, published 2009).

In one assay the test system is aNPCs. The assay can be described thus: Neuronal differentiation of aNPCs with CD4+ T cells, T cell-conditioned medium or cytokines. The conditions noted are these: 5 days in culture with cytokine, concentrations as low as 1 ng/ml. Type of assay: cell-based, mouse. As to the method:
(xvii) Co-culturing of neural progenitor cells and T cells. CD4+ T cells were purified from lymph nodes of 8-week-old C57B16/J mice as previously described (Kipnis et al., 2004). T cells were activated in RPMI medium supplemented with L-glutamine (2 mM), 2-mercaptoethanol (5×10^−5 M), sodium pyruvate (1 mM), penicillin (100 IU/ml), streptomycin (100 μg/ml), nonessential amino acids (1 ml/100 ml), and autologous serum 2% (v/v) in the presence of mouse recombinant IL-2 (mrIL-2; 5 ng/ml) and soluble anti-CD28 and anti-CD3. antibodies (1 ng/ml). T cells were co-cultured (5×10^4 cells/well) with aNPCs (5×10^4 cells/well) for 5 d on cover slips coated with Matrigel (BD Biosciences) in 24-well plates. The cultures were then fixed with 2.5% paraformaldehyde in PBS for 30 min at room temperature and stained for neuronal markers.
We therefore sought to determine whether direct interaction between aNPCs and T cells would also result in an altered pattern of aNPC differentiation. To address this question, we activated CD4+ T cells in vitro by a cognate protocol (with anti-CD3 antibodies, anti-CD28 antibodies, and IL-2) for 24 h and then allowed their activation to continue in co-cultures with aNPCs in a transwell culture system. […] After 5 days in culture the aNPCs in the lower chamber were fixed and analyzed for the appearance of newly formed neurons. […]

For assay [1], the system named is neural progenitor cells (NPCs). The assay can be described thus: Neurogenesis from NPCs co-cultured with microglia pre-activated by aggregated Aβ and cytokines. Type of assay: cell-based, mouse. The conditions noted are these: 10 days; Aβ 5 μM 48 h, cytokines 10 ng/ml. As to the method: (xx) Reagents. Recombinant mouse IFN-γ and IL-4 (both containing endotoxin at a concentration below 0.1 ng/μg cytokine) were obtained from R&D Systems (Minneapolis, Minn.). β-amyloid peptides [amyloid protein fragment 1-40 and 1-42 (Aβ1-40/1-42)] were purchased from Sigma-Aldrich, St. Louis, Mo. The Aβ peptides were dissolved in endotoxin-free water, and Aβ aggregates were formed by incubation of Aβ, as described (Ishii et al., 2000). (xxv) Neural progenitor cell culture. Coronal sections (2 mm thick) of tissue containing the subventricular zone of the lateral ventricle were obtained from the brains of adult C57B1/6J mice. […] After centrifugation at 110×g for 15 min at room temperature, the tissue was mechanically dissociated by pipette trituration. Cells obtained from single-cell suspensions were plated (3500 cells/cm^2) in 75-cm^2 Falcon tissue-culture flasks (BD Biosciences, San Diego, Calif.), in NPC-culturing medium [Dulbecco's modified Eagles's medium (DMEM)/F12 medium (Gibco/Invitrogen, Carlsbad, Calif.) containing 2 mM L-glutamine, 0.6% glucose, 9.6 μg/ml putrescine, 6.3 ng/ml progesterone, 5.2 ng/ml sodium selenite, 0.02 mg/ml insulin, 0.1 mg/ml transferrin, 2 μg/ml heparin (all from Sigma-Aldrich, Rehovot, Israel), fibroblast growth factor-2 (human recombinant, 20 ng/ml), and epidermal growth factor (human recombinant, 20 ng/ml; both from Peprotech, Rocky Hill, N.J.)]. Spheres were passaged every 4-6 days and replated as single cells. Green fluorescent protein (GFP)-expressing NPCs were obtained as previously described (Pluchino et al., 2003). (xxvi) Primary microglial culture. Brains from neonatal (P0-P1) C57B1/6J mice were stripped of their meninges and minced with scissors under a dissecting microscope (Zeiss, Stemi DV4, Germany) in Leibovitz-15 medium (Biological Industries, Kibbutz Beit Ha-Emek, Israel). […] The cell suspension was washed in culture medium for glial cells [DMEM supplemented with 10% fetal calf serum (FCS; Sigma-Aldrich, Rehovot), L-glutamine (1 mM), sodium pyruvate (1 mM), penicillin (100 U/ml), and streptomycin ([…])] and cultured at 37° C./5% CO2 in 75-cm^2 Falcon tissue-culture flasks (BD Biosciences) coated with poly-D-lysine (PDL) (10 mg/ml; Sigma-Aldrich, Rehovot) in borate buffer (2.37 g borax and 1.55 g boric acid dissolved in 500 ml sterile water, pH 8.4) for 1 h, then rinsed thoroughly with sterile, glass-distilled water. Half of the medium was changed after 6 h in culture and every 2nd day thereafter, starting on day 2, for a total culture time of 10-14 days. […]

With IL-4: recombinant interleukin-4, in the assay with aNPCs, the “β-III-tubulin expression in aNPCs” value is listed as “no change in β-III-tubulin expression”. Besides, the “neurogenesis (GFP+/βIIIT+ cells) from NPCs co-cultured with treated microglia” value in assay [1] was “partially counteracted the adverse effect of the aggregated Aβ”.
